In a melting point compilation (Tetko et al.; mined from patent text by program, amines drawn as free bases though some values may be those of a salt):

Question: With `Cc1cc(C2(C(F)(F)F)CC(c3ccc(F)cc3)=NO2)ccc1NC(=O)c1cccc(N)c1C(=O)NC(C)C` (stereo not given) as the molecule, how does the melting point read?
Answer: 122 to 124 °C

Question: Which melting point does the source give for `Cc1cn(N=Cc2cccnc2)c(=O)n1N=Cc1cccnc1` here?
Answer: 176 to 178 °C

Question: For `O=C(Nc1ccc(-c2nc(-c3ccco3)no2)c(Cl)c1)OCC(Cl)(Cl)Cl`, which melting point is on record?
Answer: 219 to 220 °C

Question: Which melting point does the source give for `NCC(CCO)c1ccc(Cl)c(Cl)c1` (single isomer, unassigned; (+)) here?
Answer: 80 to 81 °C

Question: Which melting point does the source give for `COc1ccc(-c2ncc(C(F)(F)F)cc2Cl)cc1` here?
Answer: 71 to 72 °C

Question: Which melting point does the source give for `O=C1CC2(C(=O)N1)C(=O)N(Cc1ccc(Cl)c(Cl)c1)c1ccc(F)cc12` (stereo not given) here?
Answer: 253 to 254 °C

Question: For `CNc1ccc(-c2nc(C(=O)Nc3nccs3)c(-c3cccc(OC)c3)[nH]2)cc1`, which melting point is on record?
Answer: 248 to 251 °C

Question: Which melting point does the source give for `O=C1CC(c2cccc(-n3ccnc3)c2)=Nc2cc(N3CCC(OCCO)CC3)c(-c3ccc(F)cc3)cc2N1` here?
Answer: 225 to 227 °C

Question: Which melting point does the source give for `COc1ccccc1-n1cnc2c(C(N)=O)nc(-c3ccccc3O)nc21` here?
Answer: 278 to 280 °C

Question: For `Cc1ccc(C2C(=O)N(c3ccccc3)N(c3ccccc3)C2=O)cc1`, which melting point is on record?
Answer: 184 to 185 °C

Question: With `CCN1C(=O)C(C)(C)C(=O)N(C)c2cc(CCN(CCn3cc(C)c4occc4c3=O)Cc3cc(C)nn3C)ccc21` as the molecule, how does the melting point read?
Answer: 171 to 173 °C

Question: Which melting point does the source give for `COc1cc(C(=O)N2CCCCc3cc(Cl)ccc32)ccc1NC(=O)N(C)C` here?
Answer: 230 to 232 °C

Question: Which melting point does the source give for `O=C1CC(c2ccccc2Cl)Cc2[nH]nc(-c3ccccc3)c21` (stereo not given) here?
Answer: 218 to 222 °C

Question: For `Cc1cc(Oc2ccc([N+](=O)[O-])cc2C(F)(F)F)nn1C(=O)NC(C)C`, which melting point is on record?
Answer: 90 to 92 °C

Question: Which melting point does the source give for `Cc1nc(N)nc(Cl)c1C` here?
Answer: 212 to 220 °C

Question: With `ON=c1c2nccc3cccc(c32)n2cccc12` as the molecule, how does the melting point read?
Answer: 254 °C

Question: With `N#CC(=Cc1ccc2c(c1)OCCO2)c1cccnc1` as the molecule, how does the melting point read?
Answer: 158 to 159 °C

Question: With `COC(=O)CNS(=O)(=O)c1ccc(N2CCC(NC[C@H](O)c3ccc(O)c(NS(C)(=O)=O)c3)CC2)cc1` as the molecule, how does the melting point read?
Answer: 123 to 125 °C

Question: For `CN(NC1=CC(=O)NCC1)c1ccccc1`, which melting point is on record?
Answer: 180 to 182 °C

Question: With `O=C(O)c1ccc(OCC2CC(=O)N(c3ccc(OC4CCCC4O)cc3)C2)cc1` (stereo not given) as the molecule, how does the melting point read?
Answer: 176 to 178 °C

Question: Which melting point does the source give for `CCOC(=O)CCCCCN(NS(=O)(=O)c1ccc(Cl)cc1)C(=O)Nc1cc(OC)cc(C(C)(C)C)c1O` here?
Answer: 69 to 70 °C

Question: With `COCCOc1ccc(CCCOC(=O)NS(=O)(=O)NCCc2ccccc2)c(Oc2ncc(C(F)(F)F)cc2Cl)c1` as the molecule, how does the melting point read?
Answer: 110 to 113 °C

Question: Which melting point does the source give for `Nc1nc2ccc(C(O)C(COc3ccccc3)N3CCC(Cc4ccccc4)CC3)cc2s1` (stereo not given) here?
Answer: 210 to 214 °C

Question: For `CC(=O)Oc1ccc(C#Cc2ccccc2)cc1`, which melting point is on record?
Answer: 104 to 106 °C

Question: With `NC(=O)c1[nH]c2ccccc2c1Sc1ccccc1` as the molecule, how does the melting point read?
Answer: 197 to 198 °C

Question: With `CC(C)OCc1nc2nccnc2c(=O)[nH]1` as the molecule, how does the melting point read?
Answer: 198 to 199 °C

Question: For `Cc1cc2c(cc1C=O)OCO2`, which melting point is on record?
Answer: 84 to 86 °C

Question: With `CC1(C)CCOC1(O)Cn1cncn1` (stereo not given) as the molecule, how does the melting point read?
Answer: 93 to 95 °C

Question: For `COc1ccc(/C=C/c2nc3ccccc3c(=O)o2)cc1OC`, which melting point is on record?
Answer: 175 to 179 °C

Question: With `CC(C)n1cc(-c2nc(C(N)=O)c(N)nc2-c2ccc(F)c(F)c2)ccc1=O` as the molecule, how does the melting point read?
Answer: 226 °C

Question: For `CCc1cc(C(=O)c2ccccc2Cl)c(-n2c(C)nnc2CNC(=O)Nc2ccccc2)s1`, which melting point is on record?
Answer: 141 to 143 °C

Question: For `COc1ccc(S(=O)(=O)n2c(CCCC(=O)O)cc3nc(Cl)ccc32)cc1`, which melting point is on record?
Answer: 189 °C

Question: Which melting point does the source give for `NC(=O)c1ccc([N+](=O)[O-])c(CN2C(=O)c3ccccc3C2=O)c1` here?
Answer: 100 to 124 °C

Question: With `CC(C)(C(=O)NO)C(O)Cc1ccccc1` (stereo not given) as the molecule, how does the melting point read?
Answer: 95 to 96 °C

Question: Which melting point does the source give for `CCOC(=O)c1cc(=O)c(Oc2ccc(O)cc2)co1` here?
Answer: 206 to 208 °C

Question: Which melting point does the source give for `COc1ccc(C(=O)CN(Cc2ccccc2)Cc2ccccc2)cc1C(N)=O` here?
Answer: 113 to 114 °C

Question: Which melting point does the source give for `O=c1n(CC(O)c2ccccc2)c2c(Br)c(Br)c(Br)c(Br)c2n1CC(O)c1ccccc1` (stereo not given) here?
Answer: 121 to 123 °C

Question: For `CC(C)n1cc2c3c(cccc31)C1CC(C(=O)NC3CCCC3O)CN(C)C1C2` (stereo not given), which melting point is on record?
Answer: 232 to 234 °C

Question: With `CC(C)Oc1ccc(-c2[nH]c(-c3ccc([N+](=O)[O-])cc3)nc2C(=O)Nc2nccs2)cc1` as the molecule, how does the melting point read?
Answer: 267 to 270 °C

Question: With `CC(C)(C)C(NC(=O)c1cccc(F)c1)Nc1c(Nc2cccnc2)c(=O)c1=O` (stereo not given) as the molecule, how does the melting point read?
Answer: 231 to 232 °C

Question: With `COC=C(C(=O)OC)N(C)c1cccc(-c2ccc(Cl)cc2)n1` as the molecule, how does the melting point read?
Answer: 135 °C

Question: Which melting point does the source give for `CC1COCC(C)N1c1ccc(-c2nc(C(=O)Nc3nccs3)c(-c3ccc(Cl)cc3)[nH]2)cc1` (stereo not given) here?
Answer: > 250 °C

Question: With `CCCCOP(=O)(CCCCCC1(C(=O)NCC(F)(F)F)c2ccccc2-c2ccccc21)OCCCC` as the molecule, how does the melting point read?
Answer: 88 to 91 °C

Question: For `COc1ccnc(Nc2nc(-c3ccncc3)cs2)c1`, which melting point is on record?
Answer: 190 to 192 °C

Question: With `CCCSc1csc(C(=O)OC)c1S(=O)(=O)NC(C)(C)C` as the molecule, how does the melting point read?
Answer: 93 to 98 °C

Question: Which melting point does the source give for `Cc1oc(C=Cc2cccc(C(F)(F)F)c2)nc1CO` here?
Answer: 134 to 135 °C

Question: With `CCN1c2ncc(C=O)cc2C(=O)N(C)c2ccc(F)nc21` as the molecule, how does the melting point read?
Answer: 133 to 134 °C

Question: For `C=CCC1(SC(C)=O)C(C)(C)c2ccccc2C1(C)C`, which melting point is on record?
Answer: 65 to 67 °C

Question: For `COC(=O)c1ccnc(OCc2nc(-c3ccccc3)oc2C)c1`, which melting point is on record?
Answer: 106 to 107 °C

Question: For `Cc1c(Br)c(=O)c(C(=O)O)c(-c2ccccc2)n1C`, which melting point is on record?
Answer: 252 to 253 °C
